Test results: EP4707280A1, “1,4-CINEOLE DERIVATIVE AND INTERMEDIATE THEREOF, HERBICIDE CONTAINING SAID DERIVATIVE AS ACTIVE INGREDIENT, METHOD FOR USING HERBICIDE, AND METHOD FOR PREPARING AGROCHEMICAL COMPOSITION” (HOKKO CHEMICAL INDUSTRY CO., LTD., priority 2023, dated 2024)

Columns and labels:
Type in all cases: in vivo
[1] = system: Echinochloa crus-galli; test: Test Example 8: herbicidal effect test by stem and leaf treatment in upland field (low dose); details: Echinochloa crus-galli; 7.5 g per 10 ares; sprayed seven days after sowing, upland soil; 14 days after application; read-out: weed inhibition rate
[2] = system: Digitaria ciliaris; test: as above; details: Digitaria ciliaris; 7.5 g per 10 ares; sprayed seven days after sowing, upland soil; 14 days after application; read-out: weed inhibition rate
[3] = system: Echinochloa crus-galli var. formosensis; test: Test Example 6: herbicidal effect test by application during growth period of paddy rice (low dose); details: Echinochloa crus-galli; 7.5 g per 10 ares; applied seven days after sowing, flooded pots; 14 days after application; read-out: weed inhibition rate
How it was run: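 Paddy soil in flooded Wagner pots (about 3 cm water), weeds sown at 0–1 cm, 30 seeds each, grown in a glass greenhouse. Seven days after sowing, water-diluted emulsifiable concentrate was dropped into the water at 7.5 g active ingredient per 10 ares. Weed inhibition rate (%) was scored 14 days after application, in duplicate.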

[4] = system: Scirpus juncoides; test: Test Example 2: herbicidal effect test by application during growth period of paddy rice; details: Schoenoplectiella juncoides; 120 g per 10 ares; applied seven days after sowing, flooded pots; 14 days after application; read-out: weed inhibition rate
How it was run: (§1)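 Weeds sown into puddled, flooded paddy soil received a post-emergence water application of emulsifiable concentrate at 120 g active ingredient per 10 ares, seven days after sowing. Herbicidal effect was rated 14 days later as inhibition (%).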

[5] = system: Echinochloa crus-galli var. formosensis; test: as above; details: Echinochloa crus-galli; 120 g per 10 ares; applied seven days after sowing, flooded pots; 14 days after application; read-out: weed inhibition rate
How it was run: as §1

[6] = system: Echinochloa crus-galli; test: Test Example 7: herbicidal effect test by soil application in upland field (low dose); details: Echinochloa crus-galli, 7.5 g per 10 ares, sprayed one day after sowing, 14 days after application, read-out: weed inhibition rate
How it was run: (§2)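 Low-dose soil treatment at 7.5 g a.i. per 10 a, applied as a diluted emulsifiable concentrate sprayed onto the soil surface one day after sowing in upland alluvial loam. Duplicate pots; percent weed inhibition is read 14 days after application.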

[7] = system: Digitaria ciliaris; test: as above; details: Digitaria ciliaris, 7.5 g per 10 ares, sprayed one day after sowing, 14 days after application, read-out: weed inhibition rate
How it was run: as §2

[8] = system: Echinochloa crus-galli; test: Test Example 4: herbicidal effect test by stem and leaf treatment in upland field; details: Echinochloa crus-galli; 120 g per 10 ares; sprayed seven days after sowing, upland soil; 14 days after application; read-out: weed inhibition rate
[9] = system: Echinochloa crus-galli var. formosensis; test: Test Example 5: herbicidal effect test by soil application in paddy rice (low dose); details: Echinochloa crus-galli, soil, 336 h; 7.5 g per 10 ares; applied immediately after sowing, flooded pots; 14 days after application; read-out: weed inhibition rate
How it was run: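 Pots of puddled, fertilized paddy soil receive 30 seeds per species at 0–1 cm depth and are flooded to about 3 cm. The diluted emulsifiable concentrate is then dropped onto the water, delivering 7.5 g active ingredient per 10 ares. Greenhouse grown; herbicidal effect scored 14 days later, two replicates.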

[10] = system: Scirpus juncoides; test: Test Example 1: herbicidal effect test by soil application in paddy rice; details: Schoenoplectiella juncoides, soil, 336 h; 120 g active ingredient per 10 ares; applied immediately after sowing, flooded pots; 14 days after application; read-out: weed inhibition rate
How it was run: (§3)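 Paddy soil in Wagner pots (1/10,000 acre), fertilized and puddled; 30 seeds per species sown at 0–1 cm, flooded to ~3 cm, greenhouse. Water-diluted emulsifiable concentrate dropped onto flooded pots right after sowing at 120 g active ingredient per 10 ares.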

[11] = system: Echinochloa crus-galli var. formosensis; test: as above; details: Echinochloa crus-galli, soil, 336 h; 120 g active ingredient per 10 ares; applied immediately after sowing, flooded pots; 14 days after application; read-out: weed inhibition rate
How it was run: as §3

[12] = system: Digitaria ciliaris; test: Test Example 4: herbicidal effect test by stem and leaf treatment in upland field; details: Digitaria ciliaris; 120 g per 10 ares; sprayed seven days after sowing, upland soil; 14 days after application; read-out: weed inhibition rate
[13] = system: Echinochloa crus-galli; test: Test Example 3: herbicidal effect test by soil application in upland field; details: Echinochloa crus-galli, 120 g per 10 ares, sprayed one day after sowing, 14 days after application, read-out: weed inhibition rate
How it was run: (§4)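 Pre-emergence test: seeds mixed into top 1 cm of alluvial loam upland soil in pots; emulsifiable concentrate diluted in water sprayed on soil one day after sowing at 100 L/10 a, 120 g a.i./10 a. Weed inhibition rate (%) scored at 14 days, in duplicate.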

[14] = system: Digitaria ciliaris; test: as above; details: Digitaria ciliaris, 120 g per 10 ares, sprayed one day after sowing, 14 days after application, read-out: weed inhibition rate
How it was run: as §4

CC(C)[C@@]12C[C@H](OCc3c(F)cccc3F)[C@@](C)(C[C@H]1I)O2 [1-1119, (1R,2S,4S,5R)-2-[(2,6-difluorophenyl)methoxy]-5-iodo-1-methyl-4-isopropyl-7-oxabicyclo[2.2.1]heptane]
≥ 80%: inhibition at 75 g/ha [1] | inhibition at 75 g/ha [2] | inhibition at 75 g/ha [3] | inhibition at 1200 g/ha [4] | inhibition at 1200 g/ha [5] | inhibition at 75 g/ha [6] | inhibition at 75 g/ha [7] | inhibition at 1200 g/ha [8] | inhibition at 75 g/ha [9] | pest or weed control at 1200 g/ha [10] | pest or weed control at 1200 g/ha [11] | inhibition at 1200 g/ha [12] | inhibition at 1200 g/ha [13] | inhibition at 1200 g/ha [14]

CC(C)C12CC(OCc3ccccc3Cl)C(C)(CC1Cl)O2 (stereo not shown) [1-1292, 5-chloro-2-[(2-chlorophenyl)methoxy]-1-methyl-4-isopropyl-7-oxabicyclo[2.2.1]heptane]
≥ 80%: inhibition at 75 g/ha [1] | inhibition at 75 g/ha [2] | inhibition at 75 g/ha [3] | inhibition at 1200 g/ha [4] | inhibition at 1200 g/ha [5] | inhibition at 75 g/ha [6] | inhibition at 75 g/ha [7] | inhibition at 1200 g/ha [8] | inhibition at 75 g/ha [9] | pest or weed control at 1200 g/ha [10] | pest or weed control at 1200 g/ha [11] | inhibition at 1200 g/ha [12] | inhibition at 1200 g/ha [13] | inhibition at 1200 g/ha [14]

CC(C)C12CC(OCc3ccccc3Br)C(C)(CC1Cl)O2 (stereo not shown) [1-1295, 2-[(2-bromophenyl)methoxy]-5-chloro-1-methyl-4-isopropyl-7-oxabicyclo[2.2.1]heptane]
≥ 80%: inhibition at 75 g/ha [1] | inhibition at 75 g/ha [2] | inhibition at 75 g/ha [3] | inhibition at 1200 g/ha [4] | inhibition at 1200 g/ha [5] | inhibition at 75 g/ha [6] | inhibition at 75 g/ha [7] | inhibition at 1200 g/ha [8] | inhibition at 75 g/ha [9] | pest or weed control at 1200 g/ha [10] | pest or weed control at 1200 g/ha [11] | inhibition at 1200 g/ha [12] | inhibition at 1200 g/ha [13] | inhibition at 1200 g/ha [14]

CC(C)C12CC(OCc3ccccc3I)C(C)(CC1Cl)O2 (stereo not shown) [1-1298, 5-chloro-2-[(2-iodophenyl)methoxy]-1-methyl-4-isopropyl-7-oxabicyclo[2.2.1]heptane]
≥ 80%: inhibition at 75 g/ha [1] | inhibition at 75 g/ha [2] | inhibition at 75 g/ha [3] | inhibition at 1200 g/ha [4] | inhibition at 1200 g/ha [5] | inhibition at 75 g/ha [6] | inhibition at 75 g/ha [7] | inhibition at 1200 g/ha [8] | inhibition at 75 g/ha [9] | pest or weed control at 1200 g/ha [10] | pest or weed control at 1200 g/ha [11] | inhibition at 1200 g/ha [12] | inhibition at 1200 g/ha [13] | inhibition at 1200 g/ha [14]

CC(C)C12CC(OCc3ccccc3C#N)C(C)(CC1Cl)O2 (stereo not shown) [1-1304, 2-[(5-chloro-1-methyl-4-isopropyl-7-oxabicyclo[2.2.1]heptan-2-yl)oxymethyl]benzonitrile]
≥ 80%: inhibition at 75 g/ha [1] | inhibition at 75 g/ha [2] | inhibition at 75 g/ha [3] | inhibition at 1200 g/ha [4] | inhibition at 1200 g/ha [5] | inhibition at 75 g/ha [6] | inhibition at 75 g/ha [7] | inhibition at 1200 g/ha [8] | inhibition at 75 g/ha [9] | pest or weed control at 1200 g/ha [10] | pest or weed control at 1200 g/ha [11] | inhibition at 1200 g/ha [12] | inhibition at 1200 g/ha [13] | inhibition at 1200 g/ha [14]

CC(C)C12CC(OCc3c(F)cccc3F)C(C)(CC1Cl)O2 (stereo not shown) [1-1313, 5-chloro-2-[(2,6-difluorophenyl)methoxy]-1-methyl-4-isopropyl-7-oxabicyclo[2.2.1]heptane]
≥ 80%: inhibition at 75 g/ha [1] | inhibition at 75 g/ha [2] | inhibition at 75 g/ha [3] | inhibition at 1200 g/ha [4] | inhibition at 1200 g/ha [5] | inhibition at 75 g/ha [6] | inhibition at 75 g/ha [7] | inhibition at 1200 g/ha [8] | inhibition at 75 g/ha [9] | pest or weed control at 1200 g/ha [10] | pest or weed control at 1200 g/ha [11] | inhibition at 1200 g/ha [12] | inhibition at 1200 g/ha [13] | inhibition at 1200 g/ha [14]

CC(C)C12CC(OCc3c(Cl)cccc3Cl)C(C)(CC1Cl)O2 (stereo not shown) [1-1314, 5-chloro-2-[(2,6-dichlorophenyl)methoxy]-1-methyl-4-isopropyl-7-oxabicyclo[2.2.1]heptane]
≥ 80%: inhibition at 75 g/ha [1] | inhibition at 75 g/ha [2] | inhibition at 75 g/ha [3] | inhibition at 1200 g/ha [4] | inhibition at 1200 g/ha [5] | inhibition at 75 g/ha [6] | inhibition at 75 g/ha [7] | inhibition at 1200 g/ha [8] | inhibition at 75 g/ha [9] | pest or weed control at 1200 g/ha [10] | pest or weed control at 1200 g/ha [11] | inhibition at 1200 g/ha [12] | inhibition at 1200 g/ha [13] | inhibition at 1200 g/ha [14]

CC(C)C12CC(OCc3c(F)cccc3Cl)C(C)(CC1Cl)O2 (stereo not shown) [1-1315, 5-chloro-2-[(2-chloro-6-fluorophenyl)methoxy]-1-methyl-4-isopropyl-7-oxabicyclo[2.2.1]heptane]
≥ 80%: inhibition at 75 g/ha [1] | inhibition at 75 g/ha [2] | inhibition at 75 g/ha [3] | inhibition at 1200 g/ha [4] | inhibition at 1200 g/ha [5] | inhibition at 75 g/ha [6] | inhibition at 75 g/ha [7] | inhibition at 1200 g/ha [8] | inhibition at 75 g/ha [9] | pest or weed control at 1200 g/ha [10] | pest or weed control at 1200 g/ha [11] | inhibition at 1200 g/ha [12] | inhibition at 1200 g/ha [13] | inhibition at 1200 g/ha [14]

CC(C)C12CC(OCc3ccccn3)C(C)(CC1Cl)O2 (stereo not shown) [1-1320, 2-[(5-chloro-4-isopropyl-1-methyl-7-oxabicyclo[2.2.1]heptan-2-yl)oxymethyl]pyridine]
≥ 80%: inhibition at 75 g/ha [1] | inhibition at 75 g/ha [2] | inhibition at 75 g/ha [3] | inhibition at 1200 g/ha [4] | inhibition at 1200 g/ha [5] | inhibition at 75 g/ha [6] | inhibition at 75 g/ha [7] | inhibition at 1200 g/ha [8] | inhibition at 75 g/ha [9] | pest or weed control at 1200 g/ha [10] | pest or weed control at 1200 g/ha [11] | inhibition at 1200 g/ha [12] | inhibition at 1200 g/ha [13] | inhibition at 1200 g/ha [14]

CC(C)C12CC(OCc3cccs3)C(C)(CC1Cl)O2 (stereo not shown) [1-1323, 2-chloro-1-isopropyl-4-methyl-5-(2-thienylmethoxy)-7-oxabicyclo[2.2.1]heptane]
≥ 80%: inhibition at 75 g/ha [1] | inhibition at 75 g/ha [2] | inhibition at 75 g/ha [3] | inhibition at 1200 g/ha [4] | inhibition at 1200 g/ha [5] | inhibition at 75 g/ha [6] | inhibition at 75 g/ha [7] | inhibition at 1200 g/ha [8] | inhibition at 75 g/ha [9] | pest or weed control at 1200 g/ha [10] | pest or weed control at 1200 g/ha [11] | inhibition at 1200 g/ha [12] | inhibition at 1200 g/ha [13] | inhibition at 1200 g/ha [14]

CC(C)C12CC(OCc3ccsc3)C(C)(CC1Cl)O2 (stereo not shown) [1-1324, 2-chloro-1-isopropyl-4-methyl-5-(3-thienylmethoxy)-7-oxabicyclo[2.2.1]heptane]
≥ 80%: inhibition at 75 g/ha [1] | inhibition at 75 g/ha [2] | inhibition at 75 g/ha [3] | inhibition at 1200 g/ha [4] | inhibition at 1200 g/ha [5] | inhibition at 75 g/ha [6] | inhibition at 75 g/ha [7] | inhibition at 1200 g/ha [8] | inhibition at 75 g/ha [9] | pest or weed control at 1200 g/ha [10] | pest or weed control at 1200 g/ha [11] | inhibition at 1200 g/ha [12] | inhibition at 1200 g/ha [13] | inhibition at 1200 g/ha [14]
